# Publication PMC4887995, “Small molecule dual-inhibitors of TRPV4 and TRPA1 for attenuation of inflammation and pain” (Scientific Reports, 2016)
# Entries after “also recorded” stand apart in the source; their conditions may differ.
# Experiments:
# [1] = test system: formalin-evoked trigeminal irritant pain; test: Trigeminal formalin irritant pain model, WT mice; assay type: in vivo, mouse; conditions: 10 mg/kg i.p.; for pain behavior, delayed (late neural) phase: 15 min before 4% formalin, 15–45 min
# Experimental: Figure 7 16-8 and 16-19 effectively attenuate formalin-evoked trigeminal irritant pain. (A) Time-course of nocifensive behavior in WT mice following whisker-pad injection of 4% formalin. The mice were pre-injected (i.p., 10 mg/kg; 15 min before formalin) with GSK205, 16-8 or 16-19. Note effective reduction of nocifensive behavior in the late “neural” phase by compounds 16-8, 16-19, not by GSK205. (B) Cumulative response binned into 3 phases: acute phase (0–5 min), interphase (5–15 min), and late “neural” phase (15–45 min). […] (C) As in (A), but also including Trpv4^−/− mice. Compounds were applied i.p. 15 min before formalin challenge, at 10 mg/kg except established TRPA1 blocker, A967079 (25 mg/kg). Previously-established attenuated nocifensive behavior in early and late phase in Trpv4^−/− mice was recapped, which was reduced further by TRPA1 blocker, A967079. (D) As in (B), plus inclusion of Trpv4^−/− mice. Robust effects of TRPA1-blocker, A967079, were mimicked equi-potently by 16-8 and 16-19 for early phase, and by 16-8 for late phase, partially by 16-19 for late phase. (A,C) show averaged behavioral metrics per time-point, bars in (B,D) represent mean ± SEM; for (D) ^*P < 0.05; ^#P < 0.005, one-way ANOVA; for all panels n = 5–8 mice/group. Implementation of this model was conducted as described previously. Video-taped nocifensive behavior was assessed by investigators blinded to genotype and treatment.
# [2] = Compound concentration in organs and plasma by LC-MS/MS; assay type: in vivo, mouse; conditions: 10 mg/kg i.p.
# Experimental: Mice were treated with 10 mg/kg i.p. of the respective inhibitor. Post-euthanasia harvested tissue was frozen in liquid nitrogen and stored at −80 °C for further analysis.
# Frozen tissue samples were partially thawed and cut into 1 mm slices, 5–15 mg tissue, 2-fold excess water (mass/vol.), 6-fold excess acetonitrile (16-… compounds) or methanol (GSK205) containing appropriate amount of internal standard, and 2.5 mm zirconia/silica bead (Biospec Products Inc.) were added to 500- μL polypropylene (PP) conical tube, homogenized in a Fast-Prep apparatus (Thermo-Savant) at speed “4” for 20 sec at room temp, and centrifuged at 13,600 g for 5 min at room temp. Depending on the expected concentration range of the measured compound, the supernatant was diluted 1/4–1/20 (in Mobile phase A, see below) and placed in autosampler for LC-MS/MS analysis.
# The LC-MS/MS assay for 16-… compounds and GSK205 was developed on an Agilent 1200 series LC system interfaced with Applied Biosystems API 5500QTrap, a hybrid triple quadruple-linear trap MS/MS spectrometer. Analyst (version 1.6.1) software was used for mass parameters tuning, data acquisition, and quantification. LC column: 3 × 4 mm RP C18 (Phenomenex, AJ0-4287) was operated at 35 °C. Mobile phase A: 0.1% formic acid, 2% acetonitrile, in LC/MS-grade water; mobile phase B: acetonitrile; flow rate: 1 mL/min, 1:1 MS/MS:waste split. Run time was 4 min. Diverter valve was used to send flow to MS/MS only between 1.2 and 2.5 min. The elution gradient was: 0–0.5 min, 1%B; 0.5–1.2 min, 1–95%B; 1.2–1.5 min, 95%B; 1.5–1.6 min, 95–1%B. Autosampler was operated at 4 °C; injection volume was kept at 10–50 μL. Electrospray ionization (ESI) source parameters were: positive ionization mode, curtain gas flow = 30, ionization potential = 5500 V, temperature = 500 °C, nebulizing gas 1 flow = 30, nebulizing gas 2 = 30, declustering potential = 20 V. 16-… compounds and GSK205 were individually infused as 100 nM solutions in 50%A/50%B at 10 μL/min flow rate and parameters optimized to provide maximal ion count for “parent” and collision-produced (“daughter”) MS/MS ions. Parent/daughter quantifier [qualifier] ions utilized: GSK205 (401.1/280[370]), 16-8 (400.1/279.1[91.1], 16-16 (387.1/280[105]), 16-18 (415.2/280[370], 16-19 (414.1/279.2[91.1]. Standard (analyte of interest)/internal standard pairs utilized: GSK205/16-16, 16-8/16-16, 16-18/GSK205, 16-19/16-8.
# Calibration samples (n = 6) were prepared by adding pure standard of the measured compound to tissue homogenate (tissue + 2-fold excess water, mass/vol) in the appropriate range needed for the particular dosing regime. Organs studied were analyzed alongside the study samples. […] Peak integration, calibration, and quantification was performed within Analyst software. […]
# TRPV4 = TRPV4 (Rattus norvegicus, UniProt Q9ERZ8); conditions: for inhibition of TRPV4-mediated Ca++ influx / average peak ∆Ca++ concentration: 5 μM inhibitor, GSK101 5 nM; for average peak ∆Ca++ concentration: ≈100 cells, vehicle control 1156; for increased potency over GSK205: from TRPV4 IC50 values
# TRPV4, sequence (Q9ERZ8 whole entry): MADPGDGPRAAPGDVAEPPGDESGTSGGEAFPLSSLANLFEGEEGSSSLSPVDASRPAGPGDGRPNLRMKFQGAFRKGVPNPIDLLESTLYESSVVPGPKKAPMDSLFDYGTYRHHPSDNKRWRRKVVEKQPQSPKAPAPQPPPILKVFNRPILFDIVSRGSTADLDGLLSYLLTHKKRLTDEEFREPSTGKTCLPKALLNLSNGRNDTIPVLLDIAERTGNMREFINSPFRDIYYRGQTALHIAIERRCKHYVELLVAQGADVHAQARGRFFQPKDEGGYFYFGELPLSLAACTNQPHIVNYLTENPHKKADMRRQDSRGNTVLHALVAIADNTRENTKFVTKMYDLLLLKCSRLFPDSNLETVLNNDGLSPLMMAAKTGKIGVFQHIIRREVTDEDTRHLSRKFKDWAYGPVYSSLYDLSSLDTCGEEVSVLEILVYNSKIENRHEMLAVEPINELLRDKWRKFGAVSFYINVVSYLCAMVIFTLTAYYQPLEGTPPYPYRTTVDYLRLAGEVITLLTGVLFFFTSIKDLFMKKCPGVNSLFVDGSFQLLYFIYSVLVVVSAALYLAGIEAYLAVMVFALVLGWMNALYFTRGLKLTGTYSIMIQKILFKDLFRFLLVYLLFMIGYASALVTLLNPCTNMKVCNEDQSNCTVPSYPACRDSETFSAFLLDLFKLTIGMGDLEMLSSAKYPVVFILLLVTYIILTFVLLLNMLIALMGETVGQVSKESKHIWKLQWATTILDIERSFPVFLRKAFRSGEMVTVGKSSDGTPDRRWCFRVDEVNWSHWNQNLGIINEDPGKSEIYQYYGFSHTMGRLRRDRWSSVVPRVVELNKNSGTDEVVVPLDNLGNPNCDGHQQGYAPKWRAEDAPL
compound,measurement,setting,value
CCN(CCc1ccc(Nc2nc(-c3ccccc3)cs2)cc1)Cc1ccccc1 [16-19],"pain behavior, delayed (late neural) phase",[1],robust effect; also recorded: significant reduction
same,"concentration in non-nervous tissue, especially liver and kidney, comparison of compounds",[2]; 1 h,higher concentrations
same,concentration at 6 h time-point compared to 1 h time-point,[2]; several organs,10-20 fold
same,concentration at 24 h time-point,[2]; several organs,lower than at the 6 h but higher than at the 1 h time-point
same,inhibition of TRPV4-mediated Ca++ influx,TRPV4,virtually eliminated Ca^++ influx
same,average peak ∆Ca++ concentration,TRPV4,8 nM
same,increased potency over GSK205,TRPV4,~8 fold
CN(CCc1ccc(Nc2nc(-c3ccccc3)cs2)cc1)Cc1ccccc1 [16-8],"diminishing of pain behavior, delayed phase",[1],> 50%
same,"pain behavior, delayed (late neural) phase",[1],significant attenuation; also recorded: significant reduction
same,concentration in fat and pancreas,[2]; after one hour,above its IC50
same,IC50,TRPV4,0.45 ± 0.05 µM
same,inhibition of TRPV4-mediated Ca++ influx,TRPV4,virtually eliminated Ca^++ influx
same,average peak ∆Ca++ concentration,TRPV4,6 nM
same,increased potency over GSK205,TRPV4,approximately 10 fold
